Assay results: article PMC3278406 (PLoS ONE, 2012)

Tests used:
Stx2B (Stx2 B-subunits) = Stx2B (Stx2 B-subunits) (Escherichia phage 933W, UniProt P09386); assay type: binding, Escherichia coli O157:H7
Stx1B (Stx1 B-subunits) = Stx1B (Stx1 B-subunits) (Bacteriophage H30, UniProt P69178); assay type: binding, Escherichia coli O157:H7; settings: read-out: Kd of Stx1B for glycan
Sequence of Stx1B (Stx1 B-subunits) (P69178 21-89 limits assumed): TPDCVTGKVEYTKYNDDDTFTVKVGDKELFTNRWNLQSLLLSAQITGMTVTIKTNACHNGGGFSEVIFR

Sequence of Stx2B (Stx2 B-subunits) (P09386 20-89 limits assumed): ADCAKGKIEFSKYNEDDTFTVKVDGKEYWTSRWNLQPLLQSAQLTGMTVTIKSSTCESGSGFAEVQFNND

Galα1-4Galβ1-4Glc [Pk]
binding of Stx2B to glycan (Stx2B (Stx2 B-subunits)): no binding | Kd (Stx2B (Stx2 B-subunits); read-out: Kd of Stx2B for glycan): > 12 mM | Kd (Stx1B (Stx1 B-subunits)): 4 ± 0.3 mM
